Target: T1, KCNQ 2/3 channels (HEK293 cells stably expressing human KCNQ2 and KCNQ3 subunits) (Homo sapiens, UniProt O43525+O43526)
T1 construct: expressed in transfected cells; host or cells: HEK293
Experiment: KCNQ2/3 channel activation, thallium flux FLIPR assay with BTC-AM dye
Type: cell-based
Conditions: for Emax: HEK293, maximum response relative to the response produced by 10 μM retigabine (set at 100%), read-out: Max. %; for EC50: HEK293 cells expressing human KCNQ2 and KCNQ3, thallium flux, FLIPR
Procedure, shortened: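 HEK293 cells stably expressing human KCNQ2/KCNQ3 were loaded with BTC-AM (3 μg/mL, 2 h, RT) and preincubated with compound for 4 min in pH 7.3 gluconate buffer containing 0.1 mM ouabain. Flux was triggered by 6 mM TlNO3/10 mM K2SO4 and read for 3 min; EC50 came from summed responses over basal, with maximum relative to 10 μM retigabine (100%).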

CC(C)c1nn(NC(=O)CC23CC4CC(C)(CC(C)(C4)C2)C3)c(=O)c2ccccc12 [Example 34, 2-[3,5-dimethyl-1-adamantyl]-N-(4-isopropyl-1-oxophthalazin-2(1H)-yl)acetamide]
Emax: 184%
EC50: 100 to 500 nM

O=C(Cc1cc(F)cc(F)c1)Nn1nc(-c2ccccc2)c2cc(F)ccc2c1=O [Example 35, 2-(3,5-difluorophenyl)-N-(6-fluoro-1-oxo-4-phenylphthalazin-2(1H)-yl)acetamide]
Emax: 192%
EC50: 100 to 500 nM

O=C(CC1CCCC1)Nn1nc(-c2ccc(Cl)cc2)c2ccccc2c1=O [Example 109, N-[4-(4-chlorophenyl)-1-oxophthalazin-2(1H)-yl]-2-cyclopentylacetamide]
Emax: 138%
EC50: < 100 nM

O=C(Cc1ccc(Cl)c(F)c1)Nn1nc(C(F)(F)F)c2ccccc2c1=O [Example 59, 2-(4-chloro-3-fluorophenyl)-N-[1-oxo-4-(trifluoromethyl)phthalazin-2(1H)-yl]acetamide]
Emax: 90%
EC50: 1000 to 10000 nM

O=C(C[C@H]1C[C@@H]2CC[C@H]1C2)Nn1nc(-c2ccc(F)cc2F)c2ccccc2c1=O (racemic) [Example 134, (±)-2-(exo-bicyclo[2.2.1]hept-2-yl)-N-[4-(2,4-difluorophenyl)-1-oxophthalazin-2(1H)-yl]acetamide]
Emax: 192%
EC50: < 100 nM

O=C(Cc1ccc(Cl)s1)Nn1nc(-c2ccc(Cl)cc2)c2ccccc2c1=O [Example 112, N-[4-(4-chlorophenyl)-1-oxophthalazin-2(1H)-yl]-2-(5-chloro-2-thienyl)acetamide]
Emax: 92%
EC50: 100 to 500 nM

CC(C)c1ccc(-c2nn(NC(=O)CC34CC5CC(CC(C5)C3)C4)c(=O)c3ccccc23)cc1 [Example 169, 2-(adamantan-1-yl)-N-[4-(4-isopropylphenyl)-1-oxophthalazin-2(1H)-yl]acetamide]
Emax: 139%
EC50: 100 to 500 nM

O=C(CC1CCC1)Nn1nc(C(F)(F)F)c2ccccc2c1=O [Example 45, 2-cyclobutyl-N-[1-oxo-4-(trifluoromethyl)phthalazin-2(1H)-yl]acetamide]
Emax: 84%
EC50: 1000 to 10000 nM

O=C(Cc1ccc(Cl)cc1)Nn1nc(-c2cccc(Cl)c2)c2ccccc2c1=O [Example 127, 2-(4-chlorophenyl)-N-[4-(3-chlorophenyl)-1-oxophthalazin-2(1H)-yl]acetamide]
Emax: 101%
EC50: 100 to 500 nM

O=C(Cc1cccc(OC(F)(F)F)c1)Nn1nc(-c2ccc(Cl)cc2)c2ccccc2c1=O [Example 98, N-[4-(4-chlorophenyl)-1-oxophthalazin-2(1H)-yl]-2-[3-(trifluoromethoxy)phenyl]acetamide]
Emax: 80%
EC50: 500 to 1000 nM

O=C(CC1(C(F)(F)F)CCCC1)Nn1nc(Cc2ccccc2)c2ccccc2c1=O [Example 139, N-(4-benzyl-1-oxophthalazin-2(1H)-yl)-2-[1-(trifluoromethyl)cyclopentyl]acetamide]
Emax: 20%
EC50: > 10000 nM

O=C(Cc1cc(F)cc(F)c1)Nn1nc(C2CCCC2)c2ccccc2c1=O [Example 73, N-(4-cyclopentyl-1-oxophthalazin-2(1H)-yl)-2-(3,5-difluorophenyl)acetamide]
Emax: 142%
EC50: < 100 nM

CN(C)c1ccc(CC(=O)Nn2nc(-c3ccc(Cl)cc3)c3ccccc3c2=O)cc1 [Example 101, N-[4-(4-chlorophenyl)-1-oxophthalazin-2(1H)-yl]-2-[4-(dimethylamino)phenyl]acetamide]
Emax: 57%
EC50: 1000 to 10000 nM

O=C(CC1(c2ccc(Cl)cc2)CC1)Nn1nc(C(F)(F)F)c2ccccc2c1=O [Example 39, 2-[1-(4-chlorophenyl)cyclopropyl]-N-[1-oxo-4-(trifluoromethyl)phthalazin-2(1H)-yl]acetamide]
Emax: 11%
EC50: > 10000 nM

O=C(Cc1cc(F)cc(F)c1)Nn1nc(C2CCCCC2)c2ccccc2c1=O [Example 77, N-(4-cyclohexyl-1-oxophthalazin-2(1H)-yl)-2-(3,5-difluorophenyl)acetamide]
Emax: 145%
EC50: < 100 nM

Cc1ccc(-c2nn(NC(=O)Cc3cc(F)cc(F)c3)c(=O)c3ccccc23)c(C)c1 [Example 162, 2-(3,5-difluorophenyl)-N-[4-(2,4-dimethylphenyl)-1-oxophthalazin-2(1H)-yl]acetamide]
Emax: 164%
EC50: 100 to 500 nM

O=C(Cc1cc(F)cc(F)c1)Nn1nc(-c2ccccc2)c2ccsc2c1=O [Example 33, 2-(3,5-difluorophenyl)-N-(7-oxo-4-phenylthieno[2,3-d]pyridazin-6(7H)-yl)acetamide]
Emax: 140%
EC50: 1000 to 10000 nM

CC(C)c1nn(NC(=O)Cc2cc(F)cc(F)c2)c(=O)c2ccccc12 [Example 5, 2-(3,5-difluorophenyl)-N-(4-isopropyl-1-oxophthalazin-2(1H)-yl)acetamide]
Emax: 136%
EC50: 100 to 500 nM

O=C(CC(F)(F)F)Nn1nc(-c2ccc(Cl)cc2)c2ccccc2c1=O [Example 124, N-[4-(4-chlorophenyl)-1-oxophthalazin-2(1H)-yl]-3,3,3-trifluoropropanamide]
Emax: 33%
EC50: 1000 to 10000 nM

O=C(CC12CC3CC(CC(C3)C1)C2)Nn1nc(-c2ccc(C(F)(F)F)cc2)c2ccccc2c1=O [Example 149, 2-(adamantan-1-yl)-N-{1-oxo-4-[4-(trifluoromethyl)phenyl]phthalazin-2(1H)-yl}acetamide]
Emax: 133%
EC50: < 100 nM

CC(C)c1ccc(-c2nn(NC(=O)Cc3ccc(Cl)cc3)c(=O)c3ccccc23)cc1 [Example 170, 2-(4-chlorophenyl)-N-[4-(4-isopropylphenyl)-1-oxophthalazin-2(1H)-yl]acetamide]
Emax: 104%
EC50: 500 to 1000 nM

O=C(Cc1ccc(Cl)cc1)Nn1nc(C(F)(F)F)c2ccccc2c1=O [Example 13, 2-(4-chlorophenyl)-N-[1-oxo-4-(trifluoromethyl)phthalazin-2(1H)-yl]acetamide]
Emax: 47%
EC50: 100 to 500 nM

O=C(CSC12CC3CC(CC(C3)C1)C2)Nn1nc(C(F)(F)F)c2ccccc2c1=O [Example 192, 2-(adamantan-1-ylthio)-N-[1-oxo-4-(trifluoromethyl)phthalazin-2(1H)-yl]acetamide]
Emax: 155%
EC50: 100 to 500 nM

O=C(Cc1ccc(Cl)s1)Nn1nc(C(F)(F)F)c2ccccc2c1=O [Example 55, 2-(5-chloro-2-thienyl)-N-[1-oxo-4-(trifluoromethyl)phthalazin-2(1H)-yl]acetamide]
Emax: 72%
EC50: 500 to 1000 nM

Cc1ccc(-c2nn(NC(=O)Cc3ccc(Cl)cc3)c(=O)c3ccccc23)c(C)c1 [Example 161, 2-(4-chlorophenyl)-N-[4-(2,4-dimethylphenyl)-1-oxophthalazin-2(1H)-yl]acetamide]
Emax: 145%
EC50: 100 to 500 nM

O=C(Cc1ccc(Cl)cc1)Nn1nc(-c2ccc(F)cc2)c2ccccc2c1=O [Example 132, 2-(4-chlorophenyl)-N-[4-(4-fluorophenyl)-1-oxophthalazin-2(1H)-yl]acetamide]
Emax: 123%
EC50: 100 to 500 nM

O=C(C[C@@H]1C[C@@H]2C=C[C@H]1C2)Nn1nc(C2CCC2)c2ccccc2c1=O [Example 67, 2-[(1S,2S,4S)-bicyclo[2.2.1]hept-5-en-2-yl]-N-(4-cyclobutyl-1-oxophthalazin-2(1H)-yl)acetamide]
Emax: 166%
EC50: < 100 nM

Cc1cccc(CC(=O)Nn2nc(-c3ccc(Cl)cc3)c3ccccc3c2=O)c1 [Example 108, N-[4-(4-chlorophenyl)-1-oxophthalazin-2(1H)-yl]-2-(3-methylphenyl)acetamide]
Emax: 96%
EC50: 100 to 500 nM

O=C(Cc1ccc(Cl)cc1)Nn1nc(-c2ccccc2)c2ccsc2c1=O [Example 31, 2-(4-chlorophenyl)-N-(7-oxo-4-phenylthieno[2,3-d]pyridazin-6(7H)-yl)acetamide]
Emax: 30%
EC50: 1000 to 10000 nM

O=C(Cc1ccc(Cl)cc1)Nn1nc(-c2ccccc2)c2ccccc2c1=O [Example 4, 2-(4-chlorophenyl)-N-(1-oxo-4-phenylphthalazin-2(1H)-yl)acetamide]
Emax: 157%
EC50: 100 to 500 nM

Cc1ccc(-c2nn(NC(=O)CC34CC5CC(CC(C5)C3)C4)c(=O)c3ccccc23)cc1C [Example 164, 2-(adamantan-1-yl)-N-[4-(3,4-dimethylphenyl)-1-oxophthalazin-2(1H)-yl]acetamide]
Emax: 155%
EC50: < 100 nM

O=C(CC12CC3CC(CC(C3)C1)C2)Nn1nc(-c2ccccc2)c2cccnc2c1=O [Example 7, 2-(1-adamantyl)-N-(8-oxo-5-phenylpyrido[2,3-d]pyridazin-7(8H)-yl)acetamide]
Emax: 136%
EC50: 1000 to 10000 nM

O=C(CC1CC2CCC1C2)Nn1nc(-c2ccc(F)cc2)c2ccccc2c1=O (racemic) [Example 131, (±)-2-(exo-bicyclo[2.2.1]hept-2-yl)-N-[4-(4-fluorophenyl)-1-oxophthalazin-2(1H)-yl]acetamide]
Emax: 150%
EC50: < 100 nM

O=C(Cc1cc(F)cc(F)c1)Nn1nc(-c2ccccc2)c2sccc2c1=O [Example 10, 2-(3,5-difluorophenyl)-N-(4-oxo-7-phenylthieno[2,3-d]pyridazin-5(4H)-yl)acetamide]
Emax: 179%
EC50: 1000 to 10000 nM

CC(C)(C)CC(=O)Nn1nc(C(F)(F)F)c2ccccc2c1=O [Example 48, 3,3-dimethyl-N-[1-oxo-4-(trifluoromethyl)phthalazin-2(1H)-yl]butanamide]
Emax: 77%
EC50: 1000 to 10000 nM

O=C(CC1CC2CCC1C2)Nn1nc(-c2ccc(C(=O)O)cc2)c2ccccc2c1=O (racemic) [Example 78, (±)-4-(3-{[(exo-bicyclo[2.2.1]heptan-2-yl)acetyl]amino}-4-oxo-3,4-dihydrophthalazin-1-yl)benzoic acid]
Emax: 140%
EC50: 1000 to 10000 nM
